Experimental data from patent publication US12023319B2, “Carboxylic acid aromatic amides” (priority 2016, dated 2024).

Columns and labels:
[1] = target: T1, human Bradykinin B1 receptor (Homo sapiens, UniProt P46663); experiment: Calcium flux assay (FLIPR), CHO-K1 cells expressing human Bradykinin B1 receptor, absence of 0.1% BSA (hB1 free IC50); format: cell-based; details: absence of 0.1% BSA in assay buffer
T1 construct: host or cells: CHO-K1
T1 sequence (P46663 1-353): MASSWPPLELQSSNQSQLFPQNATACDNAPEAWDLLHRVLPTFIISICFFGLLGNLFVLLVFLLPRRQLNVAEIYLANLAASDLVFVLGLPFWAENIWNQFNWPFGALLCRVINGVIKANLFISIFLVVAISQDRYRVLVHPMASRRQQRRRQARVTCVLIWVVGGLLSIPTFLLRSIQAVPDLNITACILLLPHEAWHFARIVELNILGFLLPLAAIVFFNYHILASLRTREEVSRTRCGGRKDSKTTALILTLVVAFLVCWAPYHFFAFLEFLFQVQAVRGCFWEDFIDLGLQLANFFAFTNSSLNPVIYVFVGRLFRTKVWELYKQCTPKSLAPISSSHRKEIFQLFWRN
Method in brief: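 CHO-K1 hB1-D1 cells, dye-loaded, given compounds (8 concentrations, triplicate, 1% DMSO) 30 min at 28° C, then stimulated with selective B1 agonist peptide; Ca2+ fluorescence read at 538 nm on FLIPR. Peak response normalised to DMSO and 20 µM Lys-(Des-Arg-Leu)-Bradykinin full inhibition; IC50 fitted.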

[2] = target: T2, native human Bradykinin B1 receptor (Homo sapiens, UniProt P46663); experiment: Calcium flux assay (FLIPR) with IMR-90 human fibroblasts expressing Bradykinin B1 receptor after IL-1beta induction (hB1 IMR-90); format: cell-based; details: IMR-90 human fibroblasts after IL-1beta induction, read-out: hB1 IMR90 IC50
T2 construct: which express native human Bradykinin B1 receptor after induction with human IL-1beta; Coriell Institute; host or cells: IMR-90 human foetal lung fibroblasts, induced with human IL-1beta
T2 sequence (P46663 1-353): T1 sequence (P46663 1-353)
Experimental: Calcium Flux Assay (FLIPR) with Human Fibroblasts Expressing Bradykinin B1 Receptor (hB1 IMR-90)
The Calcium flux Assay was carried out utilising IMR-90 human foetal lung fibroblasts (American Type Culture Collection, Rockville, MD; and Coriell Institute, Camden, New Jersey), which express native human Bradykinin B1 receptor after induction with human IL-1beta.
The fibroblasts were cultured in complete growth media comprised of Dulbecco's modified Eagle's medium (DMEM; Sigma) containing 10% foetal bovine serum, 4 mM L-glutamine, and 1% nonessential amino acids. The cells were maintained in a humidified atmosphere with 5% CO2 at 37° C. and were sub-cultured at a ratio of 1:3, every other day.
For the assay, IMR-90 fibroblasts were harvested using TrypLE Express (GIBCO/Invitrogen) and seeded into 384-well plates (Corning Cellbinding Surface, Cat. 3683) at a density of 15000 cells/well. The following day, cells were treated with 0.35 ng/mL human IL-1beta in 10% FBS/MEM for 3 h to up-regulate Bradykinin B1 receptor. Induced cells were loaded with fluorescent calcium indicator by incubation with 2.5 μM Fluo-4/AM (Invitrogen) at 37° C., 5% CO2 for 2 h in the presence of 2.5 mM probenecid in 1% FBS/MEM. […] Compound examples were assayed at 8 concentrations in triplicate. […] A peptide antagonist Lys-(Des-Arg-Leu)-Bradykinin (Bachem, Brackley) at 20 µM was used to determine the full inhibition as control. IC50 values were determined by the same way described for the FLI PR assay with recombinant cells.

Question: For `O=C(O)c1cc(NC(=O)C2(c3ccc(C(F)(F)F)cc3F)CC2)ccc1-c1ccc(C(F)F)nc1` [Example 4, 2-[6-(Difluoromethyl)pyridin-3-yl]-5-[({1-[2-fluoro-4-(trifluoromethyl)phenyl]cyclopropyl}carbonyl)amino]benzoic acid], which IC50 [1] is on record?
Answer: The IC50 was 110 nM.

Question: What about the IC50 [2] of the same molecule?
Answer: Its IC50 is 3400 nM.

Question: `O=C(O)c1cc(NC(=O)C2(c3ccc(OC(F)(F)F)cc3F)CC2)ccc1-c1ccc(C(F)(F)F)nc1` [Example 7, 5-[({1-[2-Fluoro-4-(trifluoromethoxy)phenyl]cyclopropyl}carbonyl)amino]-2-[6-(trifluoromethyl)pyridin-3-yl]benzoic acid] was tested. Which IC50 [1] did it give?
Answer: Its IC50 is 200 nM.

Question: What about the IC50 [2] of the same molecule?
Answer: Its IC50 is 1100 nM.

Question: For `CCOc1ccc(-c2ccc(NC(=O)C3(c4cccc(Cl)c4)CC3)cc2C(=O)O)cn1` [Example 9, 5-({[1-(3-Chlorophenyl)cyclopropyl]carbonyl}amino)-2-(6-ethoxypyridin-3-yl)benzoic acid], which IC50 [1] is on record?
Answer: The IC50 was 140 nM.

Question: And the IC50 [2]?
Answer: Its IC50 is 320 nM.

Question: Which results are given for `CCOc1ccc(-c2ccc(NC(=O)C3(c4ccc(C(F)(F)F)cc4F)CC3)cc2C(=O)O)cn1` [Example 10, 2-(6-Ethoxypyridin-3-yl)-5-[({1-[2-fluoro-4-(trifluoromethyl)phenyl]cyclopropyl}carbonyl)amino]benzoic acid]?
Answer: IC50 [1]: 18 nM; IC50 [2]: 33 nM

Question: How did the IC50 [1] turn out when `CCOc1ccc(-c2ccc(NC(=O)C3(c4ccc(OC(F)(F)F)cc4F)CC3)cc2C(=O)O)cn1` [Example 11, 2-(6-Ethoxypyridin-3-yl)-5-[({1-[2-fluoro-4-(trifluoromethoxy)phenyl]cyclopropyl}carbonyl)amino]benzoic acid] was run?
Answer: The IC50 was 19 nM.

Question: And the IC50 [2]?
Answer: The IC50 was 25 nM.

Question: Which results are given for `CC(C)(C)c1ccn(-c2ccc(NC(=O)C3(c4ccc(C(F)(F)F)cc4F)CC3)cc2C(=O)O)n1` [Example 12, 2-(3-tert-Butyl-1H-pyrazol-1-yl)-5-[({1-[2-fluoro-4-(trifluoromethyl)phenyl]cyclopropyl}carbonyl)amino]benzoic acid]?
Answer: IC50 [1]: 1200 nM; IC50 [2]: 2900 nM

Question: For `CC(C)(C)c1cnn(-c2ccc(NC(=O)C3(c4ccc(OC(F)(F)F)cc4F)CC3)cc2C(=O)O)c1` [Example 13, 2-(4-tert-Butyl-1H-pyrazol-1-yl)-5-[({1-[2-fluoro-4-(trifluoromethoxy)phenyl]cyclopropyl}carbonyl)amino]benzoic acid], which IC50 [1] is on record?
Answer: Its IC50 is 110 nM.

Question: And the IC50 [2]?
Answer: The IC50 was 310 nM.

Question: Which results are given for `Cc1ccc(C2(C(=O)Nc3ccc(-n4cc(C(C)(C)C)cn4)c(C(=O)O)c3)CC2)c(F)c1` [Example 14, 2-(4-tert-Butyl-1H-pyrazol-1-yl)-5-({[1-(2-fluoro-4-methylphenyl)cyclopropyl]carbonyl}amino)benzoic acid]?
Answer: IC50 [1]: 1000 nM; IC50 [2]: 1100 nM

Question: `CC(C)(C)c1cnn(-c2ccc(NC(=O)C3(c4ccc(C(F)(F)F)cc4F)CC3)cc2C(=O)O)c1` [Example 17, 2-(4-tert-Butyl-1H-pyrazol-1-yl)-5-[({1-[2-fluoro-4-(trifluoromethyl)phenyl]cyclopropyl}carbonyl)amino]benzoic acid] was tested. Which IC50 [1] did it give?
Answer: The IC50 was 230 nM.

Question: What about the IC50 [2] of the same molecule?
Answer: The IC50 was 100 nM.

Question: How did the IC50 [1] turn out when `Cc1ccc(-c2ccc(NC(=O)C3(c4ccc(C(F)(F)F)cc4F)CC3)cc2C(=O)O)nc1` [Example 18, 5-[({1-[2-Fluoro-4-(trifluoromethyl)phenyl]cyclopropyl}carbonyl)amino]-2-(5-methylpyridin-2-yl)benzoic acid] was run?
Answer: The IC50 was 270 nM.

Question: What about the IC50 [2] of the same molecule?
Answer: Its IC50 is 830 nM.

Question: Which results are given for `Cc1ccc(-c2ccc(NC(=O)C3(c4ccc(C(F)(F)F)cc4F)CC3)cc2C(=O)O)cn1` [Example 19, 5-[({1-[2-Fluoro-4-(trifluoromethyl)phenyl]cyclopropyl}carbonyl)amino]-2-(6-methylpyridin-3-yl)benzoic acid]?
Answer: IC50 [1]: 67 nM; IC50 [2]: 130 nM

Question: For `CCC(F)(F)c1ccc(-c2ccc(NC(=O)C3(c4ccc(F)c(F)c4)CC3)cc2C(=O)O)cn1` [Example 20, 5-({[1-(3,4-Difluorophenyl)cyclopropyl]carbonyl}amino)-2-[6-(1,1-difluoropropyl)pyridin-3-yl]benzoic acid], which IC50 [1] is on record?
Answer: The IC50 was 2500 nM.

Question: And the IC50 [2]?
Answer: The IC50 was 1700 nM.

Question: Which results are given for `Cc1ccc(C2(C(=O)Nc3cc(F)c(-c4cnn(C5CCC5)c4)c(C(=O)O)c3)CC2)c(F)c1` [Example 25, 2-(1-Cyclobutyl-1H-pyrazol-4-yl)-3-fluoro-5-({[1-(2-fluoro-4-methylphenyl)cyclopropyl]carbonyl}amino)benzoic acid]?
Answer: IC50 [1]: 14 nM; IC50 [2]: 5.9 nM

Question: `CCC(F)(F)c1ccc(-c2ccc(NC(=O)C3(c4ccc(C)cc4F)CC3)cc2C(=O)O)cn1` [Example 26, 2-[6-(1,1-Difluoropropyl)pyridin-3-yl]-5-({[1-(2-fluoro-4-methylphenyl)cyclopropyl]carbonyl}amino)benzoic acid] was tested. Which IC50 [1] did it give?
Answer: Its IC50 is 140 nM.

Question: What about the IC50 [2] of the same molecule?
Answer: Its IC50 is 130 nM.

Question: Which results are given for `CCC(F)(F)c1ccc(-c2ccc(NC(=O)C3(c4ccc(OC(F)(F)F)cc4F)CC3)cc2C(=O)O)cn1` [Example 27, 2-[6-(1,1-Difluoropropyl)pyridin-3-yl]-5-[({1-[2-fluoro-4-(trifluoromethoxy)phenyl]cyclopropyl}carbonyl)amino]benzoic acid]?
Answer: IC50 [1]: 33 nM; IC50 [2]: 73 nM

Question: For `O=C(O)c1cc(NC(=O)C2(c3cccc(Cl)c3)CC2)ccc1-c1cnn(C2CCC2)c1` [Example 28, 5-({[1-(3-Chlorophenyl)cyclopropyl]carbonyl}amino)-2-(1-cyclobutyl-1H-pyrazol-4-yl)benzoic acid], which IC50 [1] is on record?
Answer: Its IC50 is 300 nM.

Question: What about the IC50 [2] of the same molecule?
Answer: The IC50 was 460 nM.

Question: For `O=C(O)c1cc(NC(=O)C2(c3ccc(C(F)(F)F)cc3)CC2)cc(F)c1-c1cnn(C2CCC2)c1` [Example 36, 2-(1-Cyclobutyl-1H-pyrazol-4-yl)-3-fluoro-5-[({1-[4-(trifluoromethyl)phenyl]cyclopropyl}carbonyl)amino]benzoic acid], which IC50 [1] is on record?
Answer: Its IC50 is 6 nM.

Question: What about the IC50 [2] of the same molecule?
Answer: The IC50 was 14 nM.

Question: For `O=C(O)c1cc(NC(=O)C2(c3ccc(OC(F)(F)F)cc3)CC2)cc(F)c1-c1cnn(C2CCC2)c1` [Example 37, 2-(1-Cyclobutyl-1H-pyrazol-4-yl)-3-fluoro-5-[({1-[4-(trifluoromethoxy)phenyl]cyclopropyl}carbonyl)amino]benzoic acid], which IC50 [1] is on record?
Answer: The IC50 was 20 nM.

Question: And the IC50 [2]?
Answer: Its IC50 is 5.6 nM.

Question: With `O=C(O)c1cc(NC(=O)C2(c3ccc(C(F)(F)F)c(F)c3)CC2)cc(F)c1-c1cnn(C2CCC2)c1` [Example 39, 2-(1-Cyclobutyl-1H-pyrazol-4-yl)-3-fluoro-5-[({1-[3-fluoro-4-(trifluoromethyl)phenyl]cyclopropyl}carbonyl)amino]benzoic acid] as the molecule, how does the IC50 [1] read?
Answer: The IC50 was 18 nM.

Question: What about the IC50 [2] of the same molecule?
Answer: Its IC50 is 6.1 nM.

Question: What does the source list for `O=C(O)c1cc(NC(=O)C2(c3ccc(F)cc3F)CC2)cc(F)c1-c1cnn(C2CCC2)c1` [Example 40, 2-(1-Cyclobutyl-1H-pyrazol-4-yl)-5-({[1-(2,4-difluorophenyl)cyclopropyl]carbonyl}amino)-3-fluorobenzoic acid]?
Answer: IC50 [1]: 16 nM; IC50 [2]: 11 nM

Question: For `O=C(O)c1cc(NC(=O)C2(c3ccc(Cl)cc3F)CC2)cc(F)c1-c1cnn(C2CCC2)c1` [Example 41, 5-({[1-(4-Chloro-2-fluorophenyl)cyclopropyl]carbonyl}amino)-2-(1-cyclobutyl-1H-pyrazol-4-yl)-3-fluorobenzoic acid], which IC50 [1] is on record?
Answer: The IC50 was 8.8 nM.

Question: What about the IC50 [2] of the same molecule?
Answer: Its IC50 is 3.7 nM.

Question: With `O=C(O)c1cc(NC(=O)C2(c3ccc(F)cn3)CC2)cc(F)c1-c1cnn(C2CCC2)c1` [Example 44, 2-(1-Cyclobutyl-1H-pyrazol-4-yl)-3-fluoro-5-({[1-(5-fluoropyridin-2-yl)cyclopropyl]carbonyl}amino)benzoic acid] as the molecule, how does the IC50 [1] read?
Answer: Its IC50 is 45 nM.

Question: What about the IC50 [2] of the same molecule?
Answer: The IC50 was 58 nM.
